{"source": "patent US20240228987A1", "about": "“HEXOKINASE-DERIVED PEPTIDES AND THERAPEUTICAL USES THEREOF” (INSERM (INSTITUT NATIONAL DE LA SANTÉ ET DE LA RECHERCHE …, priority 2021, published 2024)", "key": {"[1]": {"biological_target": "T1, VDAC (Homo sapiens, UniProt P21796)", "T1 construct": "HEK-293 cells, expressing VDAC and HK; endogenous in cells; host or cells: HEK-293 (ATCC), transfected only with the Ca2+ probes mitoGCaMP2 / GCaMP2", "T1 sequence (P21796 2-283)": "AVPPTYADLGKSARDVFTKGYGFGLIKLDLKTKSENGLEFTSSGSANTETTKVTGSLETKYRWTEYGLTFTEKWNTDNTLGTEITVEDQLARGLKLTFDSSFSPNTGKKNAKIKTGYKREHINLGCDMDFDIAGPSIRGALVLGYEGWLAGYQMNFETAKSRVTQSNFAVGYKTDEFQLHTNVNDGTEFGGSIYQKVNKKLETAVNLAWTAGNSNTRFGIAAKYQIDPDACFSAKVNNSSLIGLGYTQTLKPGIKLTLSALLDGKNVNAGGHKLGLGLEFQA", "test": "in-cellulo screening assay: HEK-293 cells transfected with mitoGCaMP2, MJ-induced mitochondrial Ca2+ release through VDAC", "assay_type": "cell-based", "procedure": "The activity of the designed compounds was assessed on HEK-293 cells transfected with mitoGCaMP2. 40,000 cells per well were seeded in 96-well-microplates coated with Poly-D-Lysine (reference 655946, Greiner Bio-One, France) in 200 μl of DMEM supplemented with 10% FBS and 1% PS. 24 h after seeding, cells were transfected with 50 ng of mitoGCaMP2 plasmid per well using jet-PRIME reagent (Polyplus-transfection S.A, France) according to the manufacturer's recommendations. 48 h after transfection, a first measure of fluorescence was performed using the microplate reader CLARIOstar® (BMG Labtech, France). This measurement represented the basal level of Ca2+ into the mitochondria upon transfection. After a wash with 100 μl of PBS, cells were incubated with a mixture of pre-heated (37° C.) MJ at a final concentration of 6 mM and compounds at the indicated final concentrations in PBS containing 0.1% DMSO and 5% EtOH. After 35 min in a cell incubator, a second measure of fluorescence was performed using the microplate reader CLARIOstar®. This measure represented the level of mitochondrial Ca2+ according to the peptide activity. Compounds were tested in triplicates per microplates and in three or five independent experiments for each peptide. For dose effect curves, compounds were tested in triplicates per microplates and in three independent experiments. Results are expressed as the ratio between the second and first measures and normalized to the conditions without compounds containing only PBS with 0.1% DMSO and 5% EtOH. Results are expressed as the means±SD in histogram plots and dose response curves using GraphPad Prism software (version 8.0.1).\nThe biological screening of the peptide is based on the ability of methyl jasmonate (MJ) to binds and detaches HK-1 from mitochondrial VDAC in a time and dose dependent manner.^16,20 For this purpose, we developed an in-cellulo screening assay in which HEK-293 cells, expressing VDAC and HK,25 were transfected with GCaMP2, a cytoplasmic Ca2+-sensing probe, or with mitoGCaMP2, the same probe addressed to mitochondrial matrix. […] MJ that removes HK from VDAC was used to induce a Ca2+ release outside mitochondria measured through a drop in mitoGCaMP2 fluorescence and an increase in GCaMP2 fluorescence in cells."}, "[2]": {"biological_target": "T1, VDAC", "test": "live imaging of HEK-293 cells transfected with mitoGCaMP2 or GCaMP2, MJ treatment", "assay_type": "cell-based", "details": "peptide at 33 μM, MJ 6 mM, 30 min", "description": "(§1) FIG. 5. Time-lapse quantification of mitoGCaMP2 (A) and GCaMP2 (B) fluorescence levels within mitochondria and within the cytosol respectively. Quantifications of fluorescence levels of HEK-293 cells transfected with mitoGCaMP2 (A) and GCaMP2 (B) probes. Control (circle) represents the fluorescence level in mitochondria when treating the cells with the diluents 0.1 DMSO and 5% EtOH used for MJ and compound solubilization. MJ was tested at 6 mM and compound 1a at 33 μM. Statistical analysis using two-way ANOVA followed by Tukeys's multiple comparison tests (N=3 independent experiments). Results are expressed as means±SEM. **p<0.01, ****p<0.0001, ns. non significant. A. U. arbitrary unit\n(§2) Live imaging experiments were performed on HEK-293 cells transfected with either the mitoGCaMP2 or the GCaMP2 plasmids. 500,000 cells per well were seeded in 6-well microplate (NUNC, reference 153066, Thermo Fisher Scientific, France) in 1 ml of DMEM supplemented with 10% FBS and 1% PS. 48 h after seeding, cells were transfected with 2 μg of mitoGCaMP2 or GCaMP2 plasmids using jet-PRIME reagent according to the manufacturer's protocol. 48h after transfection, the microplates were placed under a videomicroscope equipped with a humidified chamber at 37° C. and with 5% CO2. Next, 6 mM of pre-heated MJ (37° C.) was added to the wells with or without the peptide 1a at 33 μM in 1 ml of DMEM without red phenol supplemented with 10% FBS and 1% PS, and containing 0.1% DMSO and 5% EtOH. In parallel, wells containing only 1 ml of DMEM without red phenol and with 10% FBS, 1% PS, 0.1% DMSO and 5% EtOH served as control condition. Live imaging acquisition was triggered when adding MJ with or without the peptide 1a. For the control condition, image acquisition was triggered after addition of 1 ml of DMEM without red phenol supplemented with 10% FBS and 1% PS, containing 0.1% DMSO and 5% EtOH. […] Overall, 5 ROIs per condition were analyzed using Zen software (Zen 2.3 lite, Zeiss, France) and ImageJ software (version 1.52o, NIH, USA). Results are expressed as the mean±SEM using GraphPad Prism software (version 8.0.1). […]"}, "[3]": {"system": "VDAC", "test": "live imaging of HEK-293 cells transfected with mitoGCaMP2 or GCaMP2, MJ treatment", "assay_type": "cell-based", "details": "MJ 6 mM", "description": "as §1, §2"}, "[4]": {"system": "HEK293 cells", "test": "Rhod-2 mitochondrial calcium imaging in HEK293 cells, methyl jasmonate (Example 2)", "assay_type": "cell-based", "details": "methyl jasmonate 6 mM, 40 minutes; 5z peptide 5 μM or AAV9 infection", "description": "(§3) FIG. 12: AAV9 represents an efficient way to sustain anti-demyelinating peptide expression in target cells. HEK293 cells were infected with a control AAV9 or AAV9-HK peptide or not infected. Two days later cells were incubated with a fluorescent dye Rhod-2 that fluoresces with calcium in mitochondria. 15 minutes later infected cells were incubated with methyl jasmonate (6 mM) and non-infected cells were incubated with methyl jasmonate (6 mM)+5z peptide (5 μM) for 40 minutes. Pictures were taken every 5 minutes imaging Rhod-2 dye.\nas §3, with “We produced an” for “FIG. 12:”, “virus expressing HK” for “represents an efficient way to sustain anti-demyelinating”, “5z (AAV9-HK peptide).” for “expression in target cells.”"}, "[5]": {"system": "Schwann cells", "details": "cited from earlier work"}, "[6]": {"biological_target": "T1, VDAC", "test": "time-lapse recording of mitochondrial calcium probe mito-GCaMP2 in HEK293 cells treated with MJ and HK1 N-terminal peptides (FIG. 3)", "assay_type": "cell-based", "details": "peptides at 5 microMolar, MJ 6 mM", "description": "FIG. 3: Time-lapse recording of fluorescence intensity of the mitochondrial calcium probe in HEK293 cells treated with Methyl Jasmonate (MJ, 6 milliMolar) and Nterminal peptide of wt HK1 (HK1-Nt peptide) or Nterminal peptide of mutated HK1 (HKmut-Nt peptide). HEK 293 cells were transfected with a plasmid expressing mito-GCaMP2. 48 hours later cells were imaged using a Zeiss Axio-observer designed for live-imaging and treated with MJ (6 mM) and/or peptides at 5 microMolar. Peptide sequences: wt HK1 peptide Ac-[…]-NH2 (SEQ ID NO:90), CMT4G-mutated HK1 peptide Ac-[…]-NH2 (SEQ ID NO:91) and Control peptide Ac-[…]-NH2 (SEQ ID NO:92)."}, "[7]": {"details": "cited from earlier work"}}, "note": "Where a SMILES comes first, the peptide text is derived from it. [ ]: non-standard residue; d: D form. Nle = CCCC[C@H](N)C(=O)O", "data": [{"molecule": "CCCC[C@H](NC(C)=O)C(=O)N[C@H](C(=O)N[C@@H](C)C(=O)N[C@@H](C)C(=O)N[C@@H](CCC(N)=O)C(=O)N[C@@H](CC(C)C)C(=O)N[C@@H](CC(C)C)C(=O)N[C@@H](C)C(=O)N[C@@H](Cc1ccc(O)cc1)C(=O)N[C@@H](Cc1ccc(O)cc1)C(=O)N[C@@H](Cc1ccccc1)C(=O)N[C@H](C(=O)N[C@@H](CCC(=O)O)C(=O)N[C@@H](CC(C)C)C(=O)N[C@@H](CCCCN)C(=O)NCC(=O)N[C@@H](CCCNC(=N)N)C(=O)N[C@@H](CCCCN)C(=O)N[C@@H](CCCCN)C(=O)N[C@@H](CCCNC(=N)N)C(=O)N[C@@H](CCCNC(=N)N)C(=O)N[C@@H](CCC(N)=O)C(=O)N[C@@H](CCCNC(=N)N)C(=O)N[C@@H](CCCNC(=N)N)C(=O)N[C@@H](CCCNC(=N)N)C(=O)N1CCC[C@H]1C(=O)N1CCC[C@H]1C(=O)N[C@@H](CCC(N)=O)C(N)=O)[C@@H](C)O)[C@@H](C)CC", "note": "[1a] (Ac-[Nle]IAAQLLAYYFTELKGRKKRRQRRRPPQ-NH2)", "values": [{"measurement": "IC50", "setting": "[1]; HEK-293 mitoGCaMP2, MJ 6 mM, 35 min, dose response, read-out: IC50 on mitochondrial Ca2+ release through VDAC", "result": "15.6 ± 2", "unit": "µM"}, {"measurement": "fluorescence change induced by MJ treatment (mitoGCaMP2 and GCaMP2)", "setting": "[2]", "result": "blocked"}]}, {"molecule": "CC/C=C\\CC1C(=O)CCC1CC(=O)OC", "note": "(centres unmarked) [MJ, Methyl jasmonate]", "values": [{"measurement": "mitoGCaMP2 fluorescence (mitochondrial Ca2+)", "setting": "[3]; at least 30 min", "result": "significant decrease"}, {"measurement": "GCaMP2 fluorescence (cytoplasmic Ca2+)", "setting": "[3]; same timeframe", "result": "increased significantly"}, {"measurement": "Rhod-2 fluorescence in mitochondria", "setting": "[4]", "result": "decrease"}, {"measurement": "demyelination", "setting": "[5]", "result": "spontaneous demyelination"}]}, {"molecule": "AQWWAYYYTEWK [5z, tested peptide also contains Tat]", "values": [{"measurement": "activity / affinity for VDAC on the screening assay (mitoGCaMP2 fluorescence)", "setting": "[1]; compounds at 3 μM, MJ 6 mM, compared with 3c, 4d or 5x", "result": "more significant"}, {"measurement": "Rhod-2 fluorescence in mitochondria", "setting": "[4]", "result": "no decrease occurred"}]}, {"molecule": "Ac-MGQICQRESATAAEKGRKKRRQRRRPPQ-NH2 [peptide derived from the mutant HK1]", "values": [{"measurement": "mitochondrial calcium release following MJ treatment", "setting": "[6]", "result": "no effect"}]}, {"molecule": "Ac-MIAAQLLAYYFTELKGRKKRRQRRRPPQ-NH2", "values": [{"measurement": "mitochondrial calcium release following MJ treatment", "setting": "[6]", "result": "able to prevent mitochondrial calcium release"}]}, {"molecule": "GRKKRRQRRRPQ [Tat]", "values": [{"measurement": "half-life in serum", "setting": "[7]", "result": "less than 6 min"}]}]}
